# Assay results from PubChem BioAssay (NCI).
#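 Five compound concentrations were applied to cells in 96-well plates for 48 hours; endpoints were derived by simple linear interpolation of the resulting dose-response curve. Definition used: TGI = concentration required for complete inhibition of growth.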
# What was measured:
# Assay in all cases: DTP human tumour cell line panel, 48 h
# A498 renal = tested on: A498 renal
# A549 NSCLC = tested on: A549 NSCLC
# ACHN renal = tested on: ACHN renal
# BT-549 breast = tested on: BT-549 breast
# CAKI-1 renal = tested on: CAKI-1 renal
# CCRF-CEM leukemia = tested on: CCRF-CEM leukemia
# COLO 205 colon = tested on: COLO 205 colon
# DU-145 prostate = tested on: DU-145 prostate
# EKVX NSCLC = tested on: EKVX NSCLC
# HCC-2998 colon = tested on: HCC-2998 colon
# HCT-116 colon = tested on: HCT-116 colon
# HCT-15 colon = tested on: HCT-15 colon
# HL-60(TB) leukemia = tested on: HL-60(TB) leukemia
# HOP-62 NSCLC = tested on: HOP-62 NSCLC
# HOP-92 NSCLC = tested on: HOP-92 NSCLC
# HS 578T breast = tested on: HS 578T breast
# HT29 colon = tested on: HT29 colon
# IGROV1 ovarian = tested on: IGROV1 ovarian
# K-562 leukemia = tested on: K-562 leukemia
# KM12 colon = tested on: KM12 colon
# LOX IMVI melanoma = tested on: LOX IMVI melanoma
# M14 melanoma = tested on: M14 melanoma
# MALME-3M melanoma = tested on: MALME-3M melanoma
# MCF7 breast = tested on: MCF7 breast
# MDA-MB-231 breast = tested on: MDA-MB-231 breast
# MDA-MB-435 = tested on: MDA-MB-435
# MDA-N = tested on: MDA-N
# MOLT-4 leukemia = tested on: MOLT-4 leukemia
# NCI-H23 lung = tested on: NCI-H23 lung
# NCI-H460 lung = tested on: NCI-H460 lung
# NCI-H522 lung = tested on: NCI-H522 lung
# NCI/ADR-RES ovarian = tested on: NCI/ADR-RES ovarian
# OVCAR-3 ovarian = tested on: OVCAR-3 ovarian
# OVCAR-4 ovarian = tested on: OVCAR-4 ovarian
# OVCAR-5 ovarian = tested on: OVCAR-5 ovarian
# OVCAR-8 ovarian = tested on: OVCAR-8 ovarian
# PC-3 prostate = tested on: PC-3 prostate
# RPMI-8226 leukemia = tested on: RPMI-8226 leukemia
# RXF 393 renal = tested on: RXF 393 renal
# SF-268 CNS = tested on: SF-268 CNS
# SF-295 CNS = tested on: SF-295 CNS
# SF-539 CNS = tested on: SF-539 CNS
# SK-MEL-2 melanoma = tested on: SK-MEL-2 melanoma
# SK-MEL-28 melanoma = tested on: SK-MEL-28 melanoma
# SK-MEL-5 melanoma = tested on: SK-MEL-5 melanoma
# SK-OV-3 ovarian = tested on: SK-OV-3 ovarian
# SN12C renal = tested on: SN12C renal
# SNB-19 CNS = tested on: SNB-19 CNS
# SNB-75 CNS = tested on: SNB-75 CNS
# SW-620 colon = tested on: SW-620 colon
# T-47D breast = tested on: T-47D breast
# TK-10 renal = tested on: TK-10 renal
# U251 CNS = tested on: U251 CNS
# UACC-257 melanoma = tested on: UACC-257 melanoma
# UACC-62 melanoma = tested on: UACC-62 melanoma
# UO-31 renal = tested on: UO-31 renal
# 786-0 renal = tested on: 786-0 renal
# NCI-H226 lung = tested on: NCI-H226 lung
# SR leukemia = tested on: SR leukemia
smiles,measurement,setting,value
Cc1cc(O)cc(O)c1N=Nc1ccc([N+](=O)[O-])cc1,TGI,A498 renal,50.9 µM
same,TGI,A549 NSCLC,> 100 µM
same,TGI,ACHN renal,94.9 µM
same,TGI,BT-549 breast,54.1 µM
same,TGI,CAKI-1 renal,38.9 µM
same,TGI,CCRF-CEM leukemia,> 100 µM
same,TGI,COLO 205 colon,> 100 µM
same,TGI,DU-145 prostate,79.1 µM
same,TGI,EKVX NSCLC,90.8 µM
same,TGI,HCC-2998 colon,49 µM
same,TGI,HCT-116 colon,15.4 µM
same,TGI,HCT-15 colon,28.9 µM
same,TGI,HL-60(TB) leukemia,> 100 µM
same,TGI,HOP-62 NSCLC,> 100 µM
same,TGI,HOP-92 NSCLC,8.17 µM
same,TGI,HS 578T breast,73.7 µM
same,TGI,HT29 colon,> 100 µM
same,TGI,IGROV1 ovarian,66.3 µM
same,TGI,K-562 leukemia,> 100 µM
same,TGI,KM12 colon,63.1 µM
same,TGI,LOX IMVI melanoma,84.8 µM
same,TGI,M14 melanoma,> 100 µM
same,TGI,MALME-3M melanoma,87.7 µM
same,TGI,MCF7 breast,> 100 µM
same,TGI,MDA-MB-231 breast,47.4 µM
same,TGI,MDA-MB-435,42.4 µM
same,TGI,MDA-N,83.9 µM
same,TGI,MOLT-4 leukemia,17.3 µM
same,TGI,NCI-H23 lung,52 µM
same,TGI,NCI-H460 lung,61 µM
same,TGI,NCI-H522 lung,14.5 µM
same,TGI,NCI/ADR-RES ovarian,52.9 µM
same,TGI,OVCAR-3 ovarian,> 100 µM
same,TGI,OVCAR-4 ovarian,57 µM
same,TGI,OVCAR-5 ovarian,85.1 µM
same,TGI,OVCAR-8 ovarian,> 100 µM
same,TGI,PC-3 prostate,> 100 µM
same,TGI,RPMI-8226 leukemia,39.8 µM
same,TGI,RXF 393 renal,40.5 µM
same,TGI,SF-268 CNS,> 100 µM
same,TGI,SF-295 CNS,> 100 µM
same,TGI,SF-539 CNS,49.9 µM
same,TGI,SK-MEL-2 melanoma,75.4 µM
same,TGI,SK-MEL-28 melanoma,61 µM
same,TGI,SK-MEL-5 melanoma,38.4 µM
same,TGI,SK-OV-3 ovarian,> 100 µM
same,TGI,SN12C renal,54 µM
same,TGI,SNB-19 CNS,> 100 µM
same,TGI,SNB-75 CNS,45.6 µM
same,TGI,SW-620 colon,> 100 µM
same,TGI,T-47D breast,> 100 µM
same,TGI,TK-10 renal,> 100 µM
same,TGI,U251 CNS,53.9 µM
same,TGI,UACC-257 melanoma,79.5 µM
same,TGI,UACC-62 melanoma,32.2 µM
same,TGI,UO-31 renal,83.8 µM
O=C1/C(=C/c2ccc(F)cc2)CNC/C1=C\c1ccc(F)cc1,TGI,786-0 renal,1.45 µM
same,TGI,A498 renal,4.33 µM
same,TGI,A549 NSCLC,18.1 µM
same,TGI,ACHN renal,3.18 µM
same,TGI,BT-549 breast,3.67 µM
same,TGI,CAKI-1 renal,3.4 µM
same,TGI,CCRF-CEM leukemia,> 100 µM
same,TGI,COLO 205 colon,3.42 µM
same,TGI,DU-145 prostate,3.96 µM
same,TGI,EKVX NSCLC,4.64 µM
same,TGI,HCC-2998 colon,1.74 µM
same,TGI,HCT-116 colon,0.915 µM
same,TGI,HCT-15 colon,1.97 µM
same,TGI,HL-60(TB) leukemia,> 100 µM
same,TGI,HOP-62 NSCLC,4.56 µM
same,TGI,HOP-92 NSCLC,> 21.5 µM
same,TGI,HS 578T breast,> 42.1 µM
same,TGI,HT29 colon,7.4 µM
same,TGI,IGROV1 ovarian,2.52 µM
same,TGI,KM12 colon,1.59 µM
same,TGI,LOX IMVI melanoma,2.33 µM
same,TGI,M14 melanoma,4.35 µM
same,TGI,MALME-3M melanoma,13.2 µM
same,TGI,MCF7 breast,8.83 µM
same,TGI,MDA-MB-231 breast,13.5 µM
same,TGI,MDA-MB-435,7.51 µM
same,TGI,MDA-N,5.67 µM
same,TGI,MOLT-4 leukemia,> 40.5 µM
same,TGI,NCI-H226 lung,15.3 µM
same,TGI,NCI-H23 lung,3.5 µM
same,TGI,NCI-H460 lung,2.36 µM
same,TGI,NCI-H522 lung,3.26 µM
same,TGI,OVCAR-3 ovarian,3.99 µM
same,TGI,OVCAR-4 ovarian,> 36.8 µM
same,TGI,OVCAR-5 ovarian,8.99 µM
same,TGI,OVCAR-8 ovarian,9.52 µM
same,TGI,PC-3 prostate,4.41 µM
same,TGI,RXF 393 renal,3.41 µM
same,TGI,SF-268 CNS,4.06 µM
same,TGI,SF-295 CNS,6.19 µM
same,TGI,SF-539 CNS,2.39 µM
same,TGI,SK-MEL-2 melanoma,29 µM
same,TGI,SK-MEL-28 melanoma,2.68 µM
same,TGI,SK-MEL-5 melanoma,3.02 µM
same,TGI,SK-OV-3 ovarian,29.6 µM
same,TGI,SN12C renal,6.71 µM
same,TGI,SNB-19 CNS,6.2 µM
same,TGI,SNB-75 CNS,18.3 µM
same,TGI,SR leukemia,> 100 µM
same,TGI,SW-620 colon,0.754 µM
same,TGI,T-47D breast,20.3 µM
same,TGI,TK-10 renal,6.71 µM
same,TGI,U251 CNS,1.39 µM
same,TGI,UACC-257 melanoma,28 µM
same,TGI,UO-31 renal,3.3 µM
